{
  "source": "patent US7138361B2",
  "about": "“Herbicidal heterocycles” (E. I. du Pont de Nemours and Company, priority 2000, dated 2006)",
  "format_in_all_cases": "in vivo",
  "key": {"rice (Oryza saliva) [1]": {"tested_on": "rice (Oryza saliva)", "assay": "Test C flooded paddy test", "details": "for Rice plant response rating: Rate 500 g/ha, scale 0 to 100, 0 no effect, 100 complete control", "protocol": "(§1) At the same time, plants selected from these crop and weed species and also winter barley (Hordeum vulgare), blackgrass (Alopecurus myosuroides), canary grass (Phalaris minor), chickweed (Stellaria media), downy brome (Bromus tectorum), green foxtail (Setaria viridis), Italian ryegrass (Lolium multiflorum), wheat (Triticum aestivum), wild oat (Avena fatua) and windgrass (Apera spica-venti) were treated with postemergence applications of some of the test chemicals formulated in the same manner. Plants ranged in height from 2 to 18 cm (1- to 4-leaf stage) for postemergence treatments. Plant species in the flooded paddy test consisted of rice (Oryza saliva), smallflower flatsedge (Cyperus difformis), duck salad (Heteranthera limosa) and barnyardgrass (Echinochloa crus-galli) grown to the 2-leaf stage for testing. Treated plants and controls were maintained in a greenhouse for 12 to 14 days, after which time all species were compared to controls and visually evaluated. Plant response ratings, summarized in Table C, are based on a scale of 0 to 100 where 0 is no effect and 100 is complete control. A dash (-) response means no test result."}, "[2]": {"tested_on": "barnyardgrass (Echinochloa crus-galli)", "assay": "Test C flooded paddy test", "details": "for Barnyardgrass plant response rating: Rate 500 g/ha, scale 0 to 100, 0 no effect, 100 complete control", "protocol": "as §1"}, "[3]": {"tested_on": "smallflower flatsedge (Cyperus difformis)", "assay": "Test C flooded paddy test", "details": "for Flatsedge plant response rating: Flooded Paddy, scale 0 to 100, 0 no effect, 100 complete control; for Plant response rating, Flatsedge: scale 0 to 100 (0 no effect, 100 complete control)", "protocol": "as §1"}, "[4]": {"tested_on": "duck salad (Heteranthera limosa)", "assay": "Test C flooded paddy test", "details": "for Ducksalad plant response rating: Rate 500 g/ha, scale 0 to 100, 0 no effect, 100 complete control", "protocol": "as §1"}, "[5]": {"tested_on": "giant foxtail (Setaria faberii)", "assay": "Test B postemergence", "details": "Rate 125 g/ha, scale 0 (no effect) to 100 (complete control), 13 to 15 days", "description": "(§2) Seeds selected from barnyardgrass (Echinochloa crus-galli), Surinam grass (Brachiaria decumbens), cocklebur (Xanthium strumarium), corn (Zea mays), crabgrass (Digitaria sanguinalis), giant foxtail (Setaria faberii), lambsquarters (Chenopodium album), morning glory (Ipomoea hederacea), pigweed (Amaranthus retroflexus), rice (Oryza saliva) and velvetleaf (Abutilon theophrasti) were planted and treated preemergence with test chemicals formulated in a non-phytotoxic solvent mixture which included a surfactant.\n(§3) At the same time, plants selected from these crop and weed species and also blackgrass (Alopecurus myosuroides), wheat (Triticum aestivum) and wild oat (Avena fatua) were treated with postemergence applications of test chemicals formulated in the same manner. Plants ranged in height from 2 to 18 cm (1- to 4-leaf stage) for postemergence treatments. Plant species in the flooded paddy test consisted of rice (Oryza saliva), smallflower flatsedge (Cyperus difformis), duck salad (Heteranthera limosa) and barnyardgrass (Echinochloa crus-galli) grown to the 2-leaf stage for testing. Treated plants and controls were maintained in a greenhouse for 13 to 15 days, after which time all species were compared to controls and visually evaluated. Plant response ratings, summarized in Table B, are based on a scale of 0 to 100 where 0 is no effect and 100 is complete control. A dash (-) response means no test result."}, "[6]": {"tested_on": "Surinam grass (Brachiaria decumbens)", "assay": "Test B postemergence", "details": "Rate 125 g/ha, scale 0 (no effect) to 100 (complete control), 13 to 15 days", "description": "as §2, §3"}, "corn (Zea mays) [7]": {"tested_on": "corn (Zea mays)", "assay": "Test B postemergence", "details": "Rate 125 g/ha, scale 0 (no effect) to 100 (complete control), 13 to 15 days", "description": "as §2, §3"}, "[8]": {"tested_on": "crabgrass (Digitaria sanguinalis)", "assay": "Test B postemergence", "details": "Rate 125 g/ha, scale 0 (no effect) to 100 (complete control), 13 to 15 days", "description": "as §2, §3"}, "[9]": {"tested_on": "blackgrass (Alopecurus myosuroides)", "assay": "Test B postemergence", "details": "Rate 125 g/ha, scale 0 (no effect) to 100 (complete control), 13 to 15 days", "description": "as §2, §3"}, "[10]": {"tested_on": "barnyardgrass (Echinochloa crus-galli)", "assay": "Test B postemergence", "details": "Rate 125 g/ha, scale 0 (no effect) to 100 (complete control), 13 to 15 days", "description": "as §2, §3"}, "[11]": {"tested_on": "giant foxtail (Setaria faberii)", "assay": "Test B preemergence", "details": "preemergence; Rate 125 g/ha; scale of 0 to 100 where 0 is no effect and 100 is complete control; 13 to 15 days", "description": "as §2, §3"}, "rice (Oryza saliva) [12]": {"tested_on": "rice (Oryza saliva)", "assay": "Test B preemergence", "details": "preemergence; Rate 125 g/ha; scale of 0 to 100 where 0 is no effect and 100 is complete control; 13 to 15 days", "description": "as §2, §3"}, "[13]": {"tested_on": "pigweed (Amaranthus retroflexus)", "assay": "Test B preemergence", "details": "preemergence; Rate 125 g/ha; scale of 0 to 100 where 0 is no effect and 100 is complete control; 13 to 15 days", "description": "as §2, §3"}, "[14]": {"tested_on": "Surinam grass (Brachiaria decumbens)", "assay": "Test B preemergence", "details": "preemergence; Rate 125 g/ha; scale of 0 to 100 where 0 is no effect and 100 is complete control; 13 to 15 days", "description": "as §2, §3"}, "[15]": {"tested_on": "cocklebur (Xanthium strumarium)", "assay": "Test B preemergence", "details": "preemergence; Rate 125 g/ha; scale of 0 to 100 where 0 is no effect and 100 is complete control; 13 to 15 days", "description": "as §2, §3"}, "[16]": {"tested_on": "morning glory (Ipomoea hederacea)", "assay": "Test B preemergence", "details": "preemergence; Rate 125 g/ha; scale of 0 to 100 where 0 is no effect and 100 is complete control; 13 to 15 days", "description": "as §2, §3"}, "corn (Zea mays) [17]": {"tested_on": "corn (Zea mays)", "assay": "Test B preemergence", "details": "preemergence; Rate 125 g/ha; scale of 0 to 100 where 0 is no effect and 100 is complete control; 13 to 15 days", "description": "as §2, §3"}, "[18]": {"tested_on": "crabgrass (Digitaria sanguinalis)", "assay": "Test B preemergence", "details": "preemergence; Rate 125 g/ha; scale of 0 to 100 where 0 is no effect and 100 is complete control; 13 to 15 days", "description": "as §2, §3"}, "[19]": {"tested_on": "lambsquarters (Chenopodium album)", "assay": "Test B preemergence", "details": "preemergence; Rate 125 g/ha; scale of 0 to 100 where 0 is no effect and 100 is complete control; 13 to 15 days", "description": "as §2, §3"}, "[20]": {"tested_on": "barnyardgrass (Echinochloa crus-galli)", "assay": "Test B preemergence", "details": "preemergence; Rate 125 g/ha; scale of 0 to 100 where 0 is no effect and 100 is complete control; 13 to 15 days", "description": "as §2, §3"}, "[21]": {"tested_on": "velvetleaf (Abutilon theophrasti)", "assay": "Test B preemergence", "details": "preemergence; Rate 125 g/ha; scale of 0 to 100 where 0 is no effect and 100 is complete control; 13 to 15 days", "description": "as §2, §3"}, "[22]": {"details": "Flooded Paddy, Rate 1000 g/ha, scale 0 to 100"}, "[23]": {"details": "flooded paddy test, Rate 125 g/ha, scale 0 to 100 (0 no effect, 100 complete control)"}, "[24]": {"details": "flooded paddy test, Rate 250 g/ha, scale 0 to 100 (0 no effect, 100 complete control)"}, "[25]": {"details": "flooded paddy test, Rate 62 g/ha, visually evaluated after 12 to 14 days, 0 = no effect, 100 = complete control"}, "[26]": {"details": "flooded paddy test, Rate 125 g/ha"}, "[27]": {"details": "flooded paddy test, Rate 62 g/ha, scale 0 to 100 (0 no effect, 100 complete control)"}},
  "data": [
    {"molecule": "CC(C)(C)C1=NN(C2CCN(c3cccc(C(F)(F)F)c3)C2=O)CC1", "note": "(stereo not shown) [Compound 135]", "values": [
      {"measurement": "Plant response rating, Rice", "setting": "rice (Oryza saliva) [1]; [22]", "value": 0},
      {"measurement": "Rice plant response rating", "setting": "rice (Oryza saliva) [1]; Flooded Paddy", "value": 0},
      {"measurement": "Plant response rating, Rice", "setting": "rice (Oryza saliva) [1]; [23]", "value": 0},
      {"measurement": "Plant response rating, Rice", "setting": "rice (Oryza saliva) [1]; [24]", "value": 0},
      {"measurement": "Plant response rating (scale 0 to 100), Rice", "setting": "rice (Oryza saliva) [1]; [25]", "value": 0},
      {"measurement": "Plant response rating, Barnyardgrass", "setting": "[2]; [22]", "value": 30},
      {"measurement": "Barnyardgrass plant response rating", "setting": "[2]; Flooded Paddy", "value": 20},
      {"measurement": "Plant response rating, Barnyardgrass", "setting": "[2]; [23]", "value": 0},
      {"measurement": "Plant response rating, Barnyardgrass", "setting": "[2]; [24]", "value": 0},
      {"measurement": "Plant response rating (scale 0 to 100), Barnyardgrass", "setting": "[2]; [25]", "value": 0},
      {"measurement": "Flatsedge plant response rating", "setting": "[3]; Rate 500 g/ha", "value": 90},
      {"measurement": "Flatsedge plant response rating", "setting": "[3]; rate of this column group stands in head line r653, not shown (group before Rate 500 g/ha)", "value": 100},
      {"measurement": "Plant response rating, Flatsedge", "setting": "[3]; [26]", "value": 20},
      {"measurement": "Plant response rating, Flatsedge", "setting": "[3]; flooded paddy test, Rate 250 g/ha", "value": 90},
      {"measurement": "Plant response rating (scale 0 to 100), Flatsedge", "setting": "[3]; [25]", "value": 0},
      {"measurement": "Plant response rating, Ducksalad", "setting": "[4]; [22]", "value": 30},
      {"measurement": "Ducksalad plant response rating", "setting": "[4]; Flooded Paddy", "value": 0},
      {"measurement": "Plant response rating, Ducksalad", "setting": "[4]; [23]", "value": 0},
      {"measurement": "Plant response rating, Ducksalad", "setting": "[4]; [24]", "value": 0},
      {"measurement": "Plant response rating (scale 0 to 100), Ducksalad", "setting": "[4]; [25]", "value": 0}
    ]},
    {"molecule": "CCCCC(C)c1ccn(C2OCN(c3cccc(OC(F)(F)F)c3)C2=O)n1", "note": "(stereo not shown) [Compound 97]", "values": [
      {"measurement": "Rice plant response rating", "setting": "rice (Oryza saliva) [1]; Flooded Paddy", "value": 20},
      {"measurement": "Plant response rating, Rice", "setting": "rice (Oryza saliva) [1]; [27]", "value": 0},
      {"measurement": "Plant response rating, Rice", "setting": "rice (Oryza saliva) [1]; [23]", "value": 20},
      {"measurement": "Barnyardgrass plant response rating", "setting": "[2]; Flooded Paddy", "value": 100},
      {"measurement": "Plant response rating, Barnyardgrass", "setting": "[2]; [27]", "value": 0},
      {"measurement": "Plant response rating, Barnyardgrass", "setting": "[2]; [23]", "value": 40},
      {"measurement": "Flatsedge plant response rating", "setting": "[3]; Rate 500 g/ha", "value": 90},
      {"measurement": "Plant response rating, Flatsedge", "setting": "[3]; flooded paddy test, Rate 62 g/ha", "value": 30},
      {"measurement": "Plant response rating, Flatsedge", "setting": "[3]; [26]", "value": 90},
      {"measurement": "Ducksalad plant response rating", "setting": "[4]; Flooded Paddy", "value": 0},
      {"measurement": "Plant response rating, Ducksalad", "setting": "[4]; [27]", "value": 0},
      {"measurement": "Plant response rating, Ducksalad", "setting": "[4]; [23]", "value": 0},
      {"measurement": "Plant response rating, Foxtail, Giant", "setting": "[5]", "value": 0},
      {"measurement": "Plant response rating, Surinam grass", "setting": "[6]", "value": 0},
      {"measurement": "Plant response rating, Corn", "setting": "corn (Zea mays) [7]", "value": 0},
      {"measurement": "Plant response rating, Crabgrass", "setting": "[8]", "value": 0},
      {"measurement": "Plant response rating, Blackgrass", "setting": "[9]", "value": 0},
      {"measurement": "Plant response rating, Barnyardgrass", "setting": "[10]", "value": 0},
      {"measurement": "Plant response rating, Foxtail, Giant", "setting": "[11]", "value": 20},
      {"measurement": "Plant response rating, Rice", "setting": "rice (Oryza saliva) [12]", "value": 0},
      {"measurement": "Plant response rating, Pigweed", "setting": "[13]", "value": 0},
      {"measurement": "Plant response rating, Surinam grass", "setting": "[14]", "value": 0},
      {"measurement": "Plant response rating, Cocklebur", "setting": "[15]", "value": 0},
      {"measurement": "Plant response rating, Morningglory", "setting": "[16]", "value": 0},
      {"measurement": "Plant response rating, Corn", "setting": "corn (Zea mays) [17]", "value": 0},
      {"measurement": "Plant response rating, Crabgrass", "setting": "[18]", "value": 20},
      {"measurement": "Plant response rating, Lambsquarters", "setting": "[19]", "value": 20},
      {"measurement": "Plant response rating, Barnyardgrass", "setting": "[20]", "value": 30},
      {"measurement": "Plant response rating, Velvetleaf", "setting": "[21]", "value": 0}
    ]}
  ]
}
